TGI data for eleven compounds are collected here from PubChem BioAssay (NCI).

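Tested at 5 concentrations; 48 h exposure; 96-well plates; endpoints linearly interpolated, else capped at highest concentration. TGI is the concentration that stops growth completely.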

Some test systems named below: 786-0 renal; A549 NSCLC; BT-549 breast; COLO 205 colon; HCT-116 colon; HOP-62 NSCLC; HT29 colon; MALME-3M melanoma; MDA-MB-435; MOLT-4 leukemia; NCI/ADR-RES ovarian; SNB-19 CNS; T-47D breast.
Assay in all cases: growth of human tumour cells (NCI), 48 h

Regarding `COc1ccc(C2c3cc4c(cc3OC3(OC)COC(=O)C23)OCO4)c(OC)c1` (centres undefined), the TGI is above 61.3 µM with 786-0 renal; above 100 µM in the test with A549 NSCLC; above 100 µM with BT-549 breast; 51.7 µM in the test on COLO 205 colon; above 90.7 µM in the test with HCT-116 colon; above 100 µM in the test on HOP-62 NSCLC. Besides, the TGI was 15.1 µM with HT29 colon; above 100 µM with MALME-3M melanoma; 5.47 µM in the test with MDA-MB-435; 71.2 µM with MOLT-4 leukemia; 34.5 µM in the test with NCI/ADR-RES ovarian; above 100 µM with SNB-19 CNS. The TGI with T-47D breast was above 100 µM.

On to `COCOC1/C=C/CCCCC(=O)C(C)C#CC1` (centres undefined), for which the TGI was 5.44 µM with 786-0 renal; 30.1 µM with A549 NSCLC; 19.3 µM in the test on BT-549 breast; 5.4 µM with COLO 205 colon; 3.34 µM in the test on HCT-116 colon; 33.9 µM in the test with HOP-62 NSCLC. For the same compound, the TGI stood at 8.28 µM in the test with HT29 colon; 4.95 µM with MALME-3M melanoma; 18.3 µM with MDA-MB-435; 5.64 µM in the test with MOLT-4 leukemia; 14.4 µM in the test with NCI/ADR-RES ovarian; 32.6 µM with SNB-19 CNS. This compound came in with a TGI in the test with T-47D breast of 6.39 µM.

As to `O=C1NC2(CCN(CCc3ccccc3)CC2)Oc2ccccc21`, the TGI in the test with 786-0 renal, with A549 NSCLC, in the test with BT-549 breast, in the test with COLO 205 colon, in the test with HCT-116 colon and in the test on HOP-62 NSCLC was above 100 µM in each case. For the same compound, the TGI in the test with HT29 colon, in the test with MALME-3M melanoma, with MDA-MB-435, in the test with MOLT-4 leukemia, with NCI/ADR-RES ovarian and in the test with SNB-19 CNS was above 100 µM in each case. The TGI in the test with T-47D breast was above 100 µM.

As for `Cc1ccc(S(=O)(=O)N2C3C=CC(C3)[C@@H]2C(Cl)(Cl)Cl)cc1` (some centres undefined), the TGI with 786-0 renal is 49.5 µM; with A549 NSCLC, above 100 µM; with BT-549 breast, 32.4 µM; in the test on COLO 205 colon, 38.2 µM; in the test with HCT-116 colon it was 24.7 µM; in the test with HOP-62 NSCLC, 41.5 µM. The TGI is 31.8 µM with HT29 colon; 56.1 µM in the test on MALME-3M melanoma; above 88.4 µM with MDA-MB-435; 75 µM with MOLT-4 leukemia; 44.6 µM in the test with NCI/ADR-RES ovarian; above 87.6 µM in the test with SNB-19 CNS. Also, in the test with T-47D breast, the TGI is above 100 µM.

For `CC(C)=C[C@H]1C[C@H](C)[C@H]2CC[C@H](C)c3c2c1c(C)c1ncoc31`, the TGI in the test with 786-0 renal came to 36.1 µM; in the test on A549 NSCLC it was 32.3 µM; in the test with BT-549 breast, 36.3 µM; with COLO 205 colon, 33.6 µM; in the test with HCT-116 colon, 33.6 µM; in the test with MALME-3M melanoma, 29.5 µM. For the same compound, the TGI with MDA-MB-435 came out at 38.9 µM; in the test with MOLT-4 leukemia it was 32.3 µM; in the test with NCI/ADR-RES ovarian, 32.4 µM; in the test on SNB-19 CNS, 32.3 µM; in the test on T-47D breast it was 37.9 µM.

In the case of `COc1ccc2oc3c(C)cc4c(OC)nnc(OC)c4c3c2c1`, the TGI in the test with 786-0 renal is above 100 µM; with A549 NSCLC, above 100 µM; with BT-549 breast it was above 100 µM; with COLO 205 colon, above 100 µM; with HCT-116 colon, 6.55 µM; in the test on HOP-62 NSCLC, above 100 µM. In addition, the TGI with HT29 colon, in the test with MALME-3M melanoma, in the test with MDA-MB-435, in the test with MOLT-4 leukemia, in the test on NCI/ADR-RES ovarian and in the test on SNB-19 CNS was above 100 µM throughout. Besides, in the test with T-47D breast, the TGI was above 100 µM.

`Cc1ccc2nc(-c3ccccc3)cc(=O)n2c1`: the TGI in the test with 786-0 renal, in the test with A549 NSCLC, with BT-549 breast, in the test on COLO 205 colon, with HCT-116 colon and with HOP-62 NSCLC was above 100 µM each time. Further, the TGI with HT29 colon, in the test with MALME-3M melanoma, with MDA-MB-435, in the test with MOLT-4 leukemia, in the test on NCI/ADR-RES ovarian and in the test with SNB-19 CNS was above 100 µM in each case. This compound displayed a TGI in the test on T-47D breast above 100 µM.

Take `C(=C/CCCN1O[C@@H](CCCCCCCCc2cccnc2)[C@H]2CCC[C@H]21)/CCCCCCCCCc1cccnc1`: the TGI in the test on 786-0 renal worked out at 37 µM; with A549 NSCLC, 47.2 µM; with BT-549 breast it was 95.7 µM; in the test on COLO 205 colon, 30.9 µM; with HCT-116 colon it was 40.4 µM; in the test with HOP-62 NSCLC, 49.3 µM. Also, the TGI was found to be 61.1 µM with HT29 colon; 33.9 µM with MALME-3M melanoma; 38 µM in the test with MDA-MB-435; 55.1 µM in the test with MOLT-4 leukemia; 88.5 µM with NCI/ADR-RES ovarian; 85 µM with SNB-19 CNS. Besides, in the test on T-47D breast, the TGI is 66.6 µM.

As to `CC1=C/C(=N\NC(N)=S)C(C(O)(C(F)(F)F)C(F)(F)F)C(C)(C)C1` (centres undefined), the TGI in the test with 786-0 renal, in the test with A549 NSCLC, with BT-549 breast, in the test with COLO 205 colon, in the test on HCT-116 colon and with HOP-62 NSCLC was above 10 µM each time. Besides, the TGI in the test on HT29 colon, in the test on MALME-3M melanoma, in the test on MDA-MB-435, in the test with MOLT-4 leukemia, in the test with NCI/ADR-RES ovarian and in the test on SNB-19 CNS was above 10 µM throughout. In addition, in the test on T-47D breast, the TGI was above 10 µM.

For `CCOC(=O)c1ccc(-c2cc(C)no2)[nH]1`, the TGI in the test on 786-0 renal, in the test on A549 NSCLC, in the test with BT-549 breast, in the test with COLO 205 colon, in the test on HCT-116 colon and with HT29 colon was above 100 µM throughout. Also, the TGI was above 100 µM in the test on MALME-3M melanoma; 29.3 µM with MDA-MB-435; above 100 µM in the test with MOLT-4 leukemia; above 100 µM in the test on NCI/ADR-RES ovarian; above 100 µM with SNB-19 CNS; above 100 µM in the test on T-47D breast.

For the compound `CC(C)C(NC(=O)Oc1ccccc1)C(=O)NC1c2c(Br)sc(Br)c2C(=O)C1O` (centres undefined), the TGI in the test with 786-0 renal is above 25 µM; with A549 NSCLC, above 25 µM; in the test with BT-549 breast, 8.16 µM; in the test on COLO 205 colon it was 14.4 µM; in the test with HCT-116 colon it was 7.34 µM; in the test on HT29 colon it was 7.71 µM. The TGI in the test with MALME-3M melanoma was 15.5 µM; in the test with MDA-MB-435, 13.1 µM; in the test with MOLT-4 leukemia it was above 25 µM; with NCI/ADR-RES ovarian, 16.5 µM; in the test with SNB-19 CNS it was 10.4 µM; in the test on T-47D breast it was 16.7 µM.
